Test results taken from patent publication US20250340591A1, “COMPOSITION FOR PREVENTING OR TREATING INFLAMMATORY BOWEL DISEASE CONTAINING NOVEL COMPOUND” (ANYGEN CO., LTD., priority 2021, published 2025).
Square brackets hold non-standard residues; d marks the D form. Ends that are not written are not given here. Peptide text beside a SMILES is read from it. * marks the point of attachment. His(Trt) = N[C@@H](Cc1cn(C(c2ccccc2)(c2ccccc2)c2ccccc2)cn1)C(=O)O; dHis(Trt) = N[C@H](Cc1cn(C(c2ccccc2)(c2ccccc2)c2ccccc2)cn1)C(=O)O; His(τ-CHPh2) = N[C@@H](Cc1cn(C(c2ccccc2)c2ccccc2)cn1)C(=O)O; Tyr(3-NO2) = N[C@@H](Cc1ccc(O)c([N+](=O)[O-])c1)C(=O)O; Biotin = O=C1N[C@H]2[C@H](CS[C@H]2CCCCC(=O)*)N1; Tyr(3-Cl) = N[C@@H](Cc1ccc(O)c(Cl)c1)C(=O)O; dPhe(4-Me) = Cc1ccc(C[C@@H](N)C(=O)O)cc1; Phe(4-Me) = Cc1ccc(C[C@H](N)C(=O)O)cc1; Octanoyl = CCCCCCCC(=O)*

Target: T1, GPR39 (Homo sapiens, UniProt O43194)
T1 sequence (O43194 1-453): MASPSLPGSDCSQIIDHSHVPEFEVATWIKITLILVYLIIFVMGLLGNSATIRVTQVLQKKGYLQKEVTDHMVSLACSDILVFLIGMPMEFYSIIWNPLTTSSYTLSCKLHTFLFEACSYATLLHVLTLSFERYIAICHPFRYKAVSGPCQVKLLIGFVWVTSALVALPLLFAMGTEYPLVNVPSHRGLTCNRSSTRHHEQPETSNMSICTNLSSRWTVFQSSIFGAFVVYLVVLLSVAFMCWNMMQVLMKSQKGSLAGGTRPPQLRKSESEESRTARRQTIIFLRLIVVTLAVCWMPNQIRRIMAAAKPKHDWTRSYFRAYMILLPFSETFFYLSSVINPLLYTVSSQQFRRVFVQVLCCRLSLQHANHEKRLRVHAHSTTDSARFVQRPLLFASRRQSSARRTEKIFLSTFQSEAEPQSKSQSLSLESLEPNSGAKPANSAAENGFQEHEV
Assay: luciferase assay system (SRE luciferase reporter gene, CV-1 cells expressing GPR39)
Type: cell-based
Set-up: expressed in transfected cells; host or cells: CV-1 fibroblast cell line (Korea Cell Line Bank), adenoviral transduction at 50 MOI
Conditions: not given

In order of falling “ECmax (−fold induction over basal)” value:
1. CCCCCCCC(=O)NCCCC[C@H](NC(=O)[C@H](N)Cc1cn(C(c2ccccc2)(c2ccccc2)c2ccccc2)cn1)C(=O)N[C@H](Cc1ccc(C)cc1)C(=O)N[C@@H](Cc1ccc(O)cc1)C(=O)O [HKFY-31, ((R)-2-((S)-2-((R)-2-amino-3-(1-trityl-1H-imidazol-4-yl)propanamido)-6-octanamidohexanamido)-3-(p-tolyl)propanoyl)-L-tyrosine] (H-[dHis(Trt)]K(Octanoyl)[dPhe(4-Me)]Y-OH)  20.9 ± 2.51 fold induction over basal
2. CCCCCCCC(=O)NCCCC[C@H](NC(=O)[C@@H](N)Cc1cn(C(c2ccccc2)(c2ccccc2)c2ccccc2)cn1)C(=O)N[C@@H](Cc1ccccc1)C(=O)N[C@@H](Cc1ccc(O)cc1)C(=O)O [HKFY-1, N6-octanoyl-N2-(Nt-trityl-L-histidyl)-L-lysyl-L-phenylalanyl-L-tyrosine] (H-[His(Trt)]K(Octanoyl)FY-OH)  20.51 ± 0.57 fold induction over basal
3. CCCCCCCC(=O)NCCCC[C@H](NC(=O)[C@@H](N)Cc1cn(C(c2ccccc2)(c2ccccc2)c2ccccc2)cn1)C(=O)N[C@@H](Cc1ccccc1)C(=O)N[C@@H](Cc1ccc(O)cc1)C(=O)N[C@@H](CO)C(=O)N[C@@H](CC(=O)O)C(=O)N[C@@H](CCC(N)=O)C(=O)N[C@@H](CCC(N)=O)C(=O)N[C@@H](C)C(=O)N[C@@H](CCCNC(=N)N)C(=O)N[C@@H](Cc1ccccc1)C(N)=O [HKFY-38, (3S,6S,9S,12S,15S)-15-((S)-2-amino-3-(1-trityl-1H-imidazol-4-yl)propanamido)-12-benzyl-3-(((6S,9S,12S,15S)-1,18-diamino-6-(((S)-1-amino-1-oxo-3-phenylpropan-2-yl)carbamoyl)-12-(3-amino-3-oxopropyl)-1-imino-9-methyl-8,11,14,18-tetraoxo-2,7,10,13-tetraazaoctadecan-15-yl)carbamoyl)-9-(4-hydroxybenzyl)-6-(hydroxymethyl)-5,8,11,14,21-pentaoxo-4,7,10,13,20-pentaazaoctacosanoic acid] (H-[His(Trt)]K(Octanoyl)FYSDQQARF-NH2)  16.5 ± 0.02 fold induction over basal
4. CCCCCCCC(=O)NCCCC[C@H](NC(=O)[C@@H](N)CC1=CNCN1CCC1CCCCC1)C(=O)N[C@@H](Cc1ccccc1)C(=O)N[C@@H](Cc1ccc(O)cc1)C(=O)O [HKFY-7, N2-((S)-2-amino-3-(3-(2-cyclohexylethyl)-2,3-dihydro-1H-imidazol-4-yl)propanoyl)-N6-octanoyl-L-lysyl-L-phenylalanyl-L-tyrosine]  16 ± 2.2 fold induction over basal
5. CCCCCCCC(=O)NCCCC[C@H](NC(=O)[C@H](Cc1cn(C(c2ccccc2)(c2ccccc2)c2ccccc2)cn1)NC(=O)CCCC[C@@H]1SC[C@@H]2NC(=O)N[C@@H]21)C(=O)N[C@@H](Cc1ccccc1)C(=O)N[C@@H](Cc1ccc(O)cc1)C(=O)O [HKFY-2, N6-octanoyl-N2-(Na-(5-((3aS,4S,6aR)-2-oxohexahydro-1H-thieno[3,4-d]imidazol-4-yl)pentanoyl)-Nt-trityl-L-histidyl)-L-lysyl-L-phenylalanyl-L-tyrosine] (Biotin-[His(Trt)]K(Octanoyl)FY-OH)  15 ± 1.87 fold induction over basal
6. N2-(Nt-(naphthalen-1-ylmethyl)-L-histidyl)-N6-octanoyl-L-lysyl-L-phenylalanyl-L-tyrosine (H(naphthalen‑1‑ylmethyl)K(Octanoyl)FY-OH) [HKFY-10]  14 ± 2.12 fold induction over basal
7. CCCCCCCC(=O)NCCCC[C@H](NC(=O)[C@@H](N)Cc1cn(C(c2ccccc2)(c2ccccc2)c2ccccc2)cn1)C(=O)N[C@@H](Cc1ccccc1)C(=O)N[C@@H](Cc1ccc(O)cc1)C(=O)N[C@@H](CCC(N)=O)C(=O)N[C@@H](CC(N)=O)C(=O)N[C@@H](CCC(N)=O)C(=O)N[C@@H](C)C(=O)N[C@@H](CCCNC(=N)N)C(=O)N[C@@H](Cc1ccccc1)C(N)=O [HKFY-43, (S)-N1-((S)-1-(((S)-1-(((S)-1-amino-1-oxo-3-phenylpropan-2-yl)amino)-5-guanidino-1-oxopentan-2-yl)amino)-1-oxopropan-2-yl)-2-((2S,5S,8S,11S,14S)-2-(2-amino-2-oxoethyl)-14-((S)-2-amino-3-(1-trityl-1H-imidazol-4-yl)propanamido)-5-(3-amino-3-oxopropyl)-11-benzyl-8-(4-hydroxybenzyl)-4,7,10,13,20-pentaoxo-3,6,9,12,19-pentaazaheptacosanamido)pentanediamide] (H-[His(Trt)]K(Octanoyl)FYQNQARF-NH2)  12.1 ± 0.02 fold induction over basal
8. CCCCCCCC(=O)NCCCC[C@H](NC(=O)[C@@H](N)Cc1cn(C(c2ccccc2)c2ccccc2)cn1)C(=O)N[C@H](Cc1ccc(C)cc1)C(=O)N[C@@H](Cc1ccc(O)c([N+](=O)[O-])c1)C(=O)O [HKFY-68, (S)-2-((R)-2-((S)-2-((S)-2-amino-3-(1-benzhydryl-1H-imidazol-4-yl)propanamido)-6-octanamidohexanamido)-3-(p-tolyl)propanamido)-3-(4-hydroxy-3-nitrophenyl)propanoic acid] (H-[His(τ-CHPh2)]K(Octanoyl)[dPhe(4-Me)][Tyr(3-NO2)]-OH)  10.8 ± 1.41 fold induction over basal
9. CCCCCCCC(=O)NCCCC[C@H](NC(=O)[C@H](Cc1cn(C(c2ccccc2)c2ccccc2)cn1)NC(=O)CCCC[C@@H]1SC[C@@H]2NC(=O)N[C@@H]21)C(=O)N[C@@H](Cc1ccc(C)cc1)C(=O)N[C@@H](Cc1ccc(O)cc1)C(=O)O [HKFY-72, ((S)-2-((S)-2-((S)-3-(1-benzhydryl-1H-imidazol-4-yl)-2-(5-((3aS,4S,6aR)-2-oxohexahydro-1H-thieno[3,4-d]imidazol-4-yl)pentanamido)propanamido)-6-octanamidohexanamido)-3-(p-tolyl)propanoyl)-L-tyrosine] (Biotin-[His(τ-CHPh2)]K(Octanoyl)[Phe(4-Me)]Y-OH)  10.4 ± 1.12 fold induction over basal
10. CCCCCCCC(=O)NCCCC[C@H](NC(=O)[C@@H](N)Cc1cn(C(c2ccccc2)c2ccccc2)cn1)C(=O)N[C@H](Cc1ccc(C)cc1)C(=O)N[C@@H](Cc1ccc(O)c(Cl)c1)C(=O)O [HKFY-67, (S)-2-((R)-2-((S)-2-((S)-2-amino-3-(1-benzhydryl-1H-imidazol-4-yl)propanamido)-6-octanamidohexanamido)-3-(p-tolyl)propanamido)-3-(3-chloro-4-hydroxyphenyl)propanoic acid] (H-[His(τ-CHPh2)]K(Octanoyl)[dPhe(4-Me)][Tyr(3-Cl)]-OH)  10.2 ± 1.51 fold induction over basal
11. CCCCCCCC(=O)NCCCC[C@H](NC(=O)[C@@H](N)Cc1cn(-c2ccc(C(C)(C)C)cc2)cn1)C(=O)N[C@H](Cc1ccc(C)cc1)C(=O)N[C@@H](Cc1ccc(O)cc1)C(=O)O [HKFY-61, ((R)-2-((S)-2-((S)-2-amino-3-(1-(4-(tert-butyl)phenyl)-1H-imidazol-4-yl)propanamido)-6-octanamidohexanamido)-3-(p-tolyl)propanoyl)-L-tyrosine]  9.88 ± 1.8 fold induction over basal

Same assay, conditions: CV-1 cells, GPR39 and SRE luciferase adenovirus, 6 hours treatment

Molecule “N2-(Nt-(naphthalen-1-ylmethyl)-L-histidyl)-N6-octanoyl-L-lysyl-L-phenylalanyl-L-tyrosine (H(naphthalen‑1‑ylmethyl)K(Octanoyl)FY-OH) [HKFY-10]” has an EC50 of 46.5 ± 1.1 µM.
